Assays:
[1] = target: M. tuberculosis Lumazine Synthase (Mycobacterium tuberculosis, UniProt P9WHE9); format: biochemical; conditions: recombinant M. tuberculosis LS; for kcat (rate constant ES → E + P): fit of the compound's data set; for kcat (rate constant ES → E + P) / Kis (inhibitor dissociation constant, ES + I ⇌ ESI): pH 7.0; for Kis (inhibitor dissociation constant, ES + I ⇌ ESI): substrate 1 varied, 2 constant
[2] = target: T1, S. pombe Lumazine Synthase (Schizosaccharomyces pombe, UniProt Q9UUB1); test: Lumazine synthase kinetic inhibition assay; format: biochemical; conditions: recombinant S. pombe LS; for kcat (rate constant ES → E + P): fit of the compound's data set; for kcat (rate constant ES → E + P) / Kis (inhibitor dissociation constant, ES + I ⇌ ESI): pH 7.0; for Kis (inhibitor dissociation constant, ES + I ⇌ ESI): substrate 1 varied, 2 constant
T1 sequence (Q9UUB1 1-159): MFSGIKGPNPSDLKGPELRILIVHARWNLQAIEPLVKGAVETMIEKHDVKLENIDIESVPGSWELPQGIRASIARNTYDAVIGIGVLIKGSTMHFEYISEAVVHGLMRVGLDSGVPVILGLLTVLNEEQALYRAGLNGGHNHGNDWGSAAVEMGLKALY

Sequence of M. tuberculosis Lumazine Synthase (P9WHE9 whole entry): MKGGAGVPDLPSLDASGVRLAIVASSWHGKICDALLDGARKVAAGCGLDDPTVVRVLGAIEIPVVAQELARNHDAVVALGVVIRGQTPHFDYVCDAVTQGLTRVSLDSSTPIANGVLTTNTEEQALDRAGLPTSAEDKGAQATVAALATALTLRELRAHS

SMILES	Mode of inhibition [1]	kcat (rate constant ES → E + P) [1]	Kis (inhibitor dissociation constant, ES + I ⇌ ESI) [1]	Mode of inhibition [2]	kcat (rate constant ES → E + P) [2]	Kis (inhibitor dissociation constant, ES + I ⇌ ESI) [2]
O=c1[nH]c(NCc2ccccc2O)c([N+](=O)[O-])c(=O)[nH]1 [Compound 46, 6-(2-Hydroxybenzylamino)-5-nitropyrimidine-2,4(1H,3H)-dione]	Uncompetitive	0.0103 ± 0.00033 s⁻¹	904 ± 193 µM	–	–	–
COc1cccc(/C=C/c2[nH]c(=O)[nH]c(=O)c2[N+](=O)[O-])c1F [Compound 38, (E)-6-(2-Fluoro-3-methoxystyryl)-5-nitropyrimidine-2,4(1H,3H)-dione]	Mixed	0.00583 ± 0.00017 s⁻¹	89 ± 11 µM	Mixed	0.0165 ± 0.00017 s⁻¹	390 ± 90 µM
O=c1[nH]c(/C=C/c2cccnc2)c([N+](=O)[O-])c(=O)[nH]1 [Compound 42, (E)-5-Nitro-6-(3-(pyridine-3-yl)vinyl)pyrimidine-2,4(1H,3H)-dione]	Partial	0.007 ± 0.00017 s⁻¹	24 ± 10 µM	–	–	–
O=c1[nH]c(NCc2ccccc2)c([N+](=O)[O-])c(=O)[nH]1 [Compound 45, 6-(Benzylamino)-5-nitropyrimidine-2,4(1H,3H)-dione]	Uncompetitive	0.00933 ± 0.00017 s⁻¹	823 ± 128 µM	–	–	–
O=C1OC(Cc2[nH]c(=O)[nH]c(=O)c2[N+](=O)[O-])c2ccccc21 (stereo not drawn) [Compound 49, 5-Nitro-6-[(3-oxo-1,3-dihydroisobenzofuran-1-yl)methyl]pyrimidine-2,4-(1H,3H)-dione]	–	–	–	Uncompetitive	0.0187 ± 0.00033 s⁻¹	154 ± 13 µM
O=c1[nH]c(/C=C/c2ccccc2F)c([N+](=O)[O-])c(=O)[nH]1 [Compound 28, (E)-6-(2-Fluorostyryl)-5-nitropyrimidine-2,4(1H,3H)-dione]	Mixed	0.0045 ± 0.00017 s⁻¹	13 ± 3 µM	–	–	–
COc1ccc(/C=C/c2[nH]c(=O)[nH]c(=O)c2[N+](=O)[O-])cc1OC [Compound 22, (E)-6-(3,4-Dimethoxystyryl)-5-nitropyrimidine-2,4(1H,3H)-dione]	Mixed	0.0055 ± 0.00017 s⁻¹	32 ± 3 µM	–	–	–
COc1ccc(/C=C/c2[nH]c(=O)[nH]c(=O)c2[N+](=O)[O-])c(OC)c1OC [Compound 23, (E)-6-(2,3,4-Trimethoxystyryl)-5-nitropyrimidine-2,4(1H,3H)-dione]	Mixed	0.00567 ± 0.00017 s⁻¹	97 ± 24 µM	–	–	–
O=c1[nH]c(/C=C/c2ccccc2[N+](=O)[O-])c([N+](=O)[O-])c(=O)[nH]1 [Compound 14, (E)-6-(2-Nitrostyryl)-5-nitropyrimidine-2,4(1H,3H)-dione]	Partial	0.00517 ± 0.00017 s⁻¹	49 ± 12 µM	–	–	–
O=c1[nH]c(/C=C/c2ccc(Cl)cc2)c([N+](=O)[O-])c(=O)[nH]1 [Compound 31, (E)-6-(4-Chlorostyryl)-5-nitropyrimidine-2,4(1H,3H)-dione]	Mixed	0.00617 ± 0.00017 s⁻¹	188 ± 38 µM	–	–	–

From PMC2760403 (The Journal of organic chemistry, 2009)
